Reference: patent US20200149038A1, “METHODS AND COMPOSITIONS RELATING TO HOMOLOGY-DIRECTED REPAIR” (CHILDREN'S MEDICAL CENTER CORPORATION, priority 2016, published 2020)
Read-outs that look alike come from different tables or passages of the source.

Assays:
[1] = tested on: Cas9 with gRNA targeting CCR5 in HEK293 cells; test: High Throughput Genome-wide Translocation Sequencing (HTGTS) off-target analysis; format: cell-based, human
Text: However the impact of DNA repair pathway choice manipulation on genomic integrity is largely unaddressed. To address the impact of ectopic expression of RAD52 and dn53BP1 genomic integrity and CRISPR/Cas9-associated off-target effects the state of the art “High Throughput Genome-wide Translocation Sequencing” (HTGTS)^20—an unbiased approach to monitor off-target (OT) cutting—was utilized. […] As CRISPR/Cas9 may have unintended cutting activity at totally unrelated sequences that can not be predicted by an algorithm, the off-target activity of each guide by HTGTS was examined (data not shown). Though majority of the OTs identified by HGTS overlapped with those identified previously, it was possible to detect novel OTs (data not shown). To study the impact of RAD52 and dn53BP1 on OTs and genomic integrity one guide with no OTs (CCR5D) and other guide that has 7 OTs identified by HTGTS (CCR5Q) were further examined.
HTGTS and Off-Target Analysis. Off-target analysis was carried out by HTGTS as described earlier^20. Briefly, HEK293 cells were co-transfected with expression plasmids encoding Cas9:RAG1B (20 μg), guide RNA targeting CCR5 (10 μg), RAD52 and dn53BP1 (5 μg each) and GFA (5 μg) using Calcium Phosphate. Cells were lysed 48 hours post-transfection and DNA was isolated by ethanol precipitation. 50 μg of DNA was processed for HTGTS as described^20.
However, the impact that such manipulations may have on genomic integrity has not been addressed. To address the impact of ectopic expression of RAD52 and dn53BP1 on genomic integrity and CRISPR/Cas9 specificity High Throughput Genome-wide Translocation Sequencing (HTGTS) was utilized (Frock et al., 2014)—an unbiased approach to monitor the specificity and off-target (OT) activity of Cas9 and other engineered nucleases as well as other types of DSBs.
HTGTS was conducted to analyse off-target effects for gRNA targeting CCR5 (FIG. 8A).

[2] = tested on: primary human CD34+ hematopoietic stem and progenitor cells; settings: Mandal et al. 2014; cited from earlier work

Row | Substance | number of off-target sites (OTs) identified by HTGTS [1] | number of off-target sites (OTs) identified by HTGTS ([1]; listed as CCR5D) | off-target activity in CD34+ HSPC [2]
1 | gCCR5D: guide RNA targeting CCR5, spacer TCACTATGCTGCCGCCCAGT (guide TCACTATGCTGCCGCCCAGTGGG; listed as DNA, chemistry not given here; the letters are possibly those of the target site; listed as Homo sapiens) | no OT | no OTs | did not exhibit OT activity
2 | gCCR5Q: guide RNA targeting CCR5, spacer GCTGTGTTTGCGTCTCTCCC (guide GCTGTGTTTGCGTCTCTCCCAGG; listed as DNA, chemistry not given here; the letters are possibly those of the target site; listed as Homo sapiens) | 7 | – | did not exhibit OT activity
